Reference: PubChem BioAssay (NCI)
Where “and” joins values, the source holds several entries; their conditions need not be identical. Equal entries are not always repeated.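 Compound exposure: 48 hours, 5 concentrations, 96-well plates. Abbreviation: GI50, concentration required for 50% inhibition of growth. TGI: total growth inhibition.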

What was measured:
Test in all cases: NCI tumour cell line growth inhibition, 48 h
NCI-H460 lung = test system: NCI-H460 lung
K-562 leukemia = test system: K-562 leukemia
SNB-75 CNS = test system: SNB-75 CNS
IGROV1 ovarian = test system: IGROV1 ovarian
OVCAR-8 ovarian = test system: OVCAR-8 ovarian
RXF 393 renal = test system: RXF 393 renal
KM12 colon = test system: KM12 colon
TK-10 renal = test system: TK-10 renal
COLO 205 colon = test system: COLO 205 colon
SK-OV-3 ovarian = test system: SK-OV-3 ovarian

Structure (SMILES)	TGI (NCI-H460 lung)	TGI (K-562 leukemia)	TGI (SNB-75 CNS)	TGI (IGROV1 ovarian) [µM]	TGI (OVCAR-8 ovarian)	TGI (RXF 393 renal)	TGI (KM12 colon)	TGI (TK-10 renal)	TGI (COLO 205 colon)	TGI (SK-OV-3 ovarian)	GI50 (NCI-H460 lung) [µM]	GI50 (K-562 leukemia) [µM]	GI50 (IGROV1 ovarian) [µM]	GI50 (OVCAR-8 ovarian) [µM]	GI50 (RXF 393 renal) [µM]	GI50 (KM12 colon) [µM]	GI50 (TK-10 renal) [µM]	GI50 (COLO 205 colon) [µM]	GI50 (SK-OV-3 ovarian) [µM]	GI50 (SNB-75 CNS) [µM]
CC1(C)C(=O)C(C)(C)C1=NN	> 100 µM	> 100 µM	> 100 µM	> 100	> 100 µM	> 100 µM	> 100 µM	> 100 µM	> 100 µM	> 100 µM										
C/C(=N\O)c1cccc(Nc2cc(-n3ccnn3)c3ccccc3n2)c1	> 100 µM	36.5 µM		27.7	41 µM	39.8 µM	33.3 µM	46.3 µM	59 µM	> 100 µM	48.9	14.9	12.6	17.5	13.6	15.1	16.9	22.2	30.6	
COc1ccc(N2Cc3cnc(Nc4ccccc4)nc3N([C@@H]3CC[C@@H](O)C3)C2=O)cc1	> 25 µM	> 25 µM	3.58 µM	> 18.5	> 25 µM	3.18 µM	> 25 µM	12.9 µM	> 25 µM	> 25 µM	3.41	5.67	2.46	4.86	0.399	3.54	1.54	2.76	3.69	0.377
CCCC(=O)Nc1cc(C(=O)N2C[C@@H]3C[C@]34C2=CC(=O)c2[nH]cc(C)c24)n(COC)c1	16.6 µM and 7.35 µM	50 µM and > 100 µM	17.7 µM and 12.3 µM		9.06 µM and 5.87 µM	9.21 µM and 3.33 µM	20.4 µM and 21.5 µM	23 µM and 7.37 µM	12.9 µM and 4.26 µM	43.8 µM and 17.9 µM	2.62	2.04	1.35			4.58	3.3	1.83	4.32	2.99
O=C(c1ccc(Cl)cc1)c1ccc(OCCCCCCCCCCOc2ccc(C(=O)c3ccc(Cl)cc3)cc2)cc1	> 100 µM	> 100 µM	> 100 µM	> 100	> 100 µM	> 100 µM	> 100 µM	> 100 µM	> 100 µM	> 100 µM										
CSC(CC(=O)O)C(=O)O (centres undefined)	> 100 µM		> 100 µM	> 100	> 100 µM	> 100 µM	> 100 µM	> 100 µM	> 100 µM	> 100 µM										
COc1ccc2c(c1)C(=O)c1c-2n(CCCN=[N+]=[N-])c(=O)c2cc(N(C)C)ccc12	> 100 µM	> 100 µM	56.2 µM	> 100	> 100 µM	80.8 µM	> 100 µM	> 100 µM	> 100 µM	> 100 µM	> 100	> 100	> 100	84.6	5.16	3.66	> 100	> 100	> 100	7.21
COc1ccccc1N=C(N)N/N=C/c1c[nH]c2ccccc12	22.8 µM	11.6 µM	25.4 µM	28.9	28.2 µM	27.3 µM	29.6 µM	30.9 µM	3.32 µM	31.7 µM										
CCc1cccc(C(C)C)c1NC(=O)C(=O)CC(=O)c1c(C)n([O-])c2ccccc2[n+]1=O	> 100 µM	> 100 µM	> 100 µM	> 100	> 100 µM	> 100 µM		> 100 µM	> 100 µM	> 100 µM										
CCO/C=C/C(C)C1(C(=O)OCC)CCCCC1=O (centres undefined)	> 100 µM	> 100 µM	> 100 µM	> 100	> 100 µM	> 100 µM	> 100 µM	> 100 µM	> 100 µM	> 100 µM										
FC(F)(F)c1cc(-c2nnc3n2N=C(N2CCCC2)CS3)cc(C(F)(F)F)c1	> 50 µM	> 50 µM	24.4 µM	> 50	> 50 µM	> 50 µM	> 50 µM		> 50 µM	> 50 µM	7.15	> 50	> 50	32.9	26.6	> 50		> 50	14.3	7.12
COc1ccc(-c2cc(=O)c3c(C)cc(C)nc3[nH]2)cc1	> 100 µM	> 100 µM		84.8	> 100 µM	> 100 µM	> 100 µM	99.2 µM	42.6 µM	> 100 µM	40.9									
O=C(O)[C@@H]1[C@H](C(=O)O)[C@H](C(=O)O)C[C@@H]1C(=O)O	> 100 µM	> 100 µM	> 100 µM	> 100	> 100 µM	> 100 µM	> 100 µM	> 100 µM	> 100 µM	> 100 µM										
COc1cc2c(c(OC)c1OC)-c1ccc(N)c(=O)cc1[C@@H](NC(C)=O)CC2		> 100 µM			> 100 µM	> 100 µM	0.186 µM	> 100 µM	0.0386 µM	> 100 µM	0.0294	< 0.014	0.0359	0.0477	0.0303	< 0.01	0.0852	0.012	0.0388	
CCCCS(=O)CCC(N)C(=O)O (centres undefined)	> 100 µM	> 100 µM	> 100 µM	> 100	> 100 µM	> 100 µM	> 100 µM	> 100 µM	> 100 µM	> 100 µM										
COc1ccc(-c2nc3sc(-c4ccc(Cl)cc4)cn3n2)cc1	4 µM	> 50 µM	6.85 µM	8.13	> 50 µM	39.7 µM	> 50 µM	5.62 µM	> 50 µM	> 50 µM	1.33	29.4	1.15	2.6	6	12.2	2.01	2.65	11.7	1.61
COc1cc(/C=C\c2ccccc2)cc(OC)c1OC	27.3 µM	> 43.2 µM	6.9 µM	> 100	46.7 µM	5.25 µM	> 73.1 µM	> 50.3 µM	> 20.4 µM											
O=C(Nc1ccc(F)cc1)c1ccc(NC2=C(Cl)C(=O)N(Cc3ccccc3)C2=O)cc1	> 100 µM	13.7 µM	37.4 µM	3.58	30.9 µM	32.2 µM	38 µM		> 100 µM	68 µM	7.32	3.79	1.06	4.66	12.2	15.9		22.1	24	15.9
CC(C)CNCC(O)COc1ccc(C(C)(C)c2ccc(OCC(O)CNCC(C)C)cc2)cc1 (centres undefined)	4.11 µM		18.2 µM	15.5	4.42 µM	3.67 µM	7.41 µM	5.32 µM	3.24 µM	15.3 µM	1.97		3.66	2.01	1.66	2.38	2.03	1.59	4.09	4
O=C(c1ccc2ccccc2c1)c1c(C(F)(F)F)n([O-])c2cc(F)c(F)cc2[n+]1=O	88.9 µM	1.44 µM	15 µM			2.97 µM	8.1 µM	3.41 µM		27.9 µM	3.74	0.314			1.49	0.937	1.76		14.5	4.29
NC1CCCCC1.[O]=[Ge].[O]=[Ge].[O]=[Ge][OH].[O]=[Ge][OH]	> 100 µM	> 100 µM	> 100 µM	> 100	> 100 µM	> 100 µM	> 100 µM	> 100 µM									> 100			
O=Nc1c(-c2c(O)[nH]c3ccc([N+](=O)[O-])cc23)[nH]c2ccc(O)cc12		> 37.7 µM	3.64 µM	> 100	> 100 µM	0.475 µM	1.28 µM	> 100 µM	40.5 µM		0.32	0.456	0.312	0.36	0.18	0.298	2.24	5.92		0.0264
Cc1c(S(C)(=O)=O)c(-c2cc(F)cc(N3CCN(c4ccc(NS(=O)(=O)c5ccc(N[C@H](CCN6CCC(C(=O)OCCCP(=O)(O)O)CC6)CSc6ccccc6)c(S(=O)(=O)C(F)(F)F)c5)cc4)CC3)c2)c(-c2ccc(Cl)cc2)n1C(C)C	> 100 µM		> 100 µM	> 100	> 100 µM	> 100 µM	> 100 µM	> 100 µM	> 100 µM	> 100 µM	> 100		> 100	> 100	> 100	> 100	25.8	> 100	> 100	> 100
COc1ccc(NC(=O)C(=O)Cc2nc3ccc([N+](=O)[O-])cc3[nH]c2=O)c(OC)c1	> 100 µM	> 100 µM	> 100 µM	> 100		> 100 µM	> 100 µM	> 100 µM	> 100 µM	> 100 µM										
